Patent publication US20250326771A1, “PIPERAZINE DERIVATIVES USEFUL IN HIV THERAPY” (VIIV HEALTHCARE COMPANY, priority 2022, published 2025)
Like-named read-outs stand apart in the source and are kept apart here.

Key:
[1] = system: Jurkat HIV-luciferase clones; test: Jurkat latency reversal assay; type: cell-based; conditions: Homo sapiens, 48 h; Jurkat latency reversal assay potency; read-out: Jurkat pEC50 (converted)
Method in brief: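 Three pooled Jurkat reporter clones, each with one or two integrated HIV-luciferase proviruses, 5,000 cells/well; duplicate 14-point titrations starting at 10 μM; 48 h, 37° C, then Steady-Glo luminescence; four-parameter logistic analysis yields EC50 and percent maximal activation against DMSO vehicle.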

cIAP1-BIR3 = cIAP1-BIR3 (Homo sapiens (Human), UniProt Q13490); test: BIR binding assay (FRET competition), cIAP1 BIR3; conditions: for cIAP1 BIR3 vs BIR2 separation window: fold separation (FS) for cIAP1
Method in brief: (§1)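 615/665 nm FRET ratio. Compound, His-domain and 200 nM AF647-SMAC peptide incubated 60 min, then 2 nM Eu-W1024 for 30 min. Domains: cIAP1-BIR3 50 nM; XIAP-BIR3 100 nM; cIAP1-BIR2, cIAP2-BIR2 325 nM each. 15-pt 3-fold series; variable-slope IC50.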

cIAP1-BIR2 = cIAP1-BIR2 (Homo sapiens (Human), UniProt Q13490); test: BIR binding assay (FRET competition), cIAP1 BIR2
Method in brief: as §1

cIAP2-BIR3 = cIAP2-BIR3 (Homo sapiens (Human), UniProt Q13489); test: BIR binding assay (FRET competition), cIAP2 BIR3; conditions: for cIAP2 BIR3 vs BIR2 separation window: fold separation (FS) for cIAP2
cIAP2-BIR2 = cIAP2-BIR2 (Homo sapiens (Human), UniProt Q13489); test: BIR binding assay (FRET competition), cIAP2 BIR2
Method in brief: as §1

XIAP-BIR3 = XIAP-BIR3 (Homo sapiens (Human), UniProt P98170); test: BIR binding assay (FRET competition), XIAP BIR3; conditions: for XIAP BIR3 vs BIR2 separation window: fold separation (FS) for XIAP
Method in brief: as §1

XIAP-BIR2 = XIAP-BIR2 (Homo sapiens (Human), UniProt P98170); test: BIR binding assay (FRET competition), XIAP BIR2; conditions: for IC50: read-out: XIAP BIR2 (pIC50) (converted)
Method in brief: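 Competitive TR-FRET used His-tagged XIAP-BIR2 (200 nM) and 200 nM AlexaFluor647-labelled AVPIAQKSE SMAC peptide in HEPES buffer pH 7.4 with CHAPS, glycerol and DTT, incubated 60 min before 30 min with 2 nM Eu-W1024. The 615/665 nm ratio from a 15-point, 3-fold series was fit with a four-parameter model for IC50/pIC50.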

Chain of cIAP1-BIR2 (Q13490 173-257): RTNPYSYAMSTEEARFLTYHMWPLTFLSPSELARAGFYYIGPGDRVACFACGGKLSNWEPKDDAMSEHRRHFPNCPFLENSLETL
Chain of cIAP2-BIR2 (Q13489 158-242): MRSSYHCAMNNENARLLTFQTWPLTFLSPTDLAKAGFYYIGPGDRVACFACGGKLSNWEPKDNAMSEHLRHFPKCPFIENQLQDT
Chain of XIAP-BIR3 (P98170 241-356): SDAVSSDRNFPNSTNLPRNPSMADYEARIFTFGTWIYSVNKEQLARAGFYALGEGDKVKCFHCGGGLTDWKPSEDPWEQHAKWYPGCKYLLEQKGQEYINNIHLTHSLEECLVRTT
Chain of XIAP-BIR2 (P98170 124-240): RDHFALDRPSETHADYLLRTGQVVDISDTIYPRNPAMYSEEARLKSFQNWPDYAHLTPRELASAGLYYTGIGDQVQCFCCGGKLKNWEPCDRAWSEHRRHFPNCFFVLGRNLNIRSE
Chain of cIAP1-BIR3 (Q13490 253-363): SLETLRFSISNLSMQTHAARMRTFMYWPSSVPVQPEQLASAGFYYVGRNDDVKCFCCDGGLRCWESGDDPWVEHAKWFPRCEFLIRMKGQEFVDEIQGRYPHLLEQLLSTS
Chain of cIAP2-BIR3 (Q13489 238-349): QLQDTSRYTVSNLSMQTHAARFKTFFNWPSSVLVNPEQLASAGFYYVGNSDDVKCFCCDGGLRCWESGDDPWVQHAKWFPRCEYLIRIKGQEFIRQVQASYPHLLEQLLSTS

Row | Structure (SMILES) | EC50 [1] | IC50 (cIAP1-BIR3) | cIAP1 BIR3 vs BIR2 separation window (cIAP1-BIR3) | IC50 (cIAP1-BIR2) | IC50 (cIAP2-BIR3) | cIAP2 BIR3 vs BIR2 separation window (cIAP2-BIR3) | IC50 (cIAP2-BIR2) | IC50 (XIAP-BIR3) | XIAP BIR3 vs BIR2 separation window (XIAP-BIR3) | IC50 (XIAP-BIR2; FRET competition) | XIAP BIR2 (pIC50) (XIAP-BIR2; FRET competition binding) | IC50 (XIAP-BIR2; FRET competition binding)
1 | C[C@@H]1CN(CC(=O)N2CC(C)(C)c3[nH]c(=O)c(Cc4cc(F)c(F)cc4F)cc32)[C@@H](CN2CCO[C@H](C(=O)NCc3ccc(CNC(=O)[C@@H]4CN(C[C@H]5CN[C@H](C)CN5CC(=O)N5CC(C)(C)c6[nH]c(=O)c(Cc7cc(F)c(F)cc7F)cc65)CCO4)cc3)C2)CN1 [Compound 175, (2S,2′S)-N,N′-(1,4-phenylenebis(methylene)) bis(4-(((2R,5R)-1-(2-(3,3-dimethyl-5-oxo-6-(2,4,5-trifluorobenzyl)-2,3,4,5-tetrahydro-1H-pyrrolo[3,2-b]pyridin-1-yl)-2-oxoethyl)-5-methylpiperazin-2-yl)methyl)morpholine-2-carboxamide)] | 0.49 to 12.6 nM | 15.8 to 31.6 nM | +++ (10,000>FS>1,000) | 1000 to 3160 nM | 7.94 to 15.8 nM | +++ (10,000>FS>1,000) | 3160 to 10000 nM | 15.8 to 31.6 nM | ++++ (FS>10,000) | 10000 to 51300 nM |  | 
2 | C[C@@H]1CN(CC(=O)N2CC(C)(C)c3c2cc(Cc2ccc(F)cc2)c(=O)n3C)[C@@H](CN2CCO[C@H](COc3ccc(Cc4ccc(OC[C@@H]5CN(C[C@H]6CN[C@H](C)CN6CC(=O)N6CC(C)(C)c7c6cc(Cc6ccc(F)cc6)c(=O)n7C)CCO5)cc4)cc3)C2)CN1 [Example 115, 1,1′-(2,2′-((3R,3′R,6R,6′R)-(((2S,2'S)-(((methylenebis(4,1-phenylene))bis(oxy))bis(methylene))bis(morpholine-2,4-diyl))bis(methylene))bis(3-methylpiperazine-6,1-diyl))bis(acetyl))bis(6-(4-fluorobenzyl)-3,3,4-trimethyl-1,2,3,4-tetrahydro-5H-pyrrolo[3,2-b]pyridin-5-one)] | 63.1 to 316 nM | 31.6 to 501 nM | +++ (10,000>FS>1,000) | 3160 to 10000 nM | 31.6 to 501 nM | +++ (10,000>FS>1,000) | 10000 to 51300 nM | 31.6 to 501 nM | ++ (1,000>FS>100) |  | ++ (5.00<pIC50<=5.50) | 
3 | C[C@@H]1CN(CC(=O)N2CC(C)(C)c3[nH]c(=O)c(Cc4ccc(F)cc4)cc32)[C@@H](CN2CCO[C@H](C(=O)NCc3cccc(CNC(=O)[C@@H]4CN(C[C@H]5CN[C@H](C)CN5CC(=O)N5CC(C)(C)c6[nH]c(=O)c(Cc7ccc(F)cc7)cc65)CCO4)c3)C2)CN1 [Example 122, (2S,2'S)-N,N′-(1,3-phenylenebis(methylene))bis(4-(((2R,5R)-1-(2-(6-(4-fluorobenzyl)-3,3-dimethyl-5-oxo-2,3,4,5-tetrahydro-1H-pyrrolo[3,2-b]pyridin-1-yl)-2-oxoethyl)-5-methylpiperazin-2-yl)methyl)morpholine-2-carboxamide)] | 12.6 to 63.1 nM | 7.94 to 15.8 nM | ++ (1,000>FS>100) | 1000 to 3160 nM | 7.94 to 15.8 nM | +++ (10,000>FS>1,000) | 1000 to 3160 nM | 15.8 to 31.6 nM | ++++ (FS>10,000) |  |  | 10000 to 51300 nM
4 | C[C@@H]1CN(CC(=O)N2CC(C)(C)c3[nH]c(=O)c(Cc4ccc(F)cc4)cc32)[C@@H](CN2CCO[C@H](C(=O)NCC(O)CNC(=O)[C@@H]3CN(C[C@H]4CN[C@H](C)CN4CC(=O)N4CC(C)(C)c5[nH]c(=O)c(Cc6ccc(F)cc6)cc54)CCO3)C2)CN1 [Compound 137, (2S,2′S)-N,N′-(2-hydroxypropane-1,3-diyl)bis(4-(((2R,5R)-1-(2-(6-(4-fluorobenzyl)-3,3-dimethyl-5-oxo-2,3,4,5-tetrahydro-1H-pyrrolo[3,2-b]pyridin-1-yl)-2-oxoethyl)-5-methylpiperazin-2-yl)methyl)morpholine-2-carboxamide)] | 63.1 to 316 nM | 7.94 to 15.8 nM | +++ (10,000>FS>1,000) | 1000 to 3160 nM | 7.94 to 15.8 nM | +++ (10,000>FS>1,000) | 1000 to 3160 nM | 15.8 to 31.6 nM | ++++ (FS>10,000) | 10000 to 51300 nM |  | 
5 | C[C@@H]1CN(CC(=O)N2CC(C)(C)c3[nH]c(=O)c(Cc4ccc(F)cc4)cc32)[C@@H](CN2CCO[C@H](C(=O)Nc3cccc(NC(=O)[C@@H]4CN(C[C@H]5CN[C@H](C)CN5CC(=O)N5CC(C)(C)c6[nH]c(=O)c(Cc7ccc(F)cc7)cc65)CCO4)c3)C2)CN1 [Compound 140, (2S,2′S)-N,N′-(1,3-phenylene)bis(4-(((2R,5R)-1-(2-(6-(4-fluorobenzyl)-3,3-dimethyl-5-oxo-2,3,4,5-tetrahydro-1H-pyrrolo[3,2-b]pyridin-1-yl)-2-oxoethyl)-5-methylpiperazin-2-yl)methyl)morpholine-2-carboxamide)] | 63.1 to 316 nM | 7.94 to 15.8 nM | +++ (10,000>FS>1,000) | 1000 to 3160 nM | 7.94 to 15.8 nM | +++ (10,000>FS>1,000) | 1000 to 3160 nM | 15.8 to 31.6 nM | ++++ (FS>10,000) | 10000 to 51300 nM |  | 
6 | C[C@@H]1CN(CC(=O)N2CC(C)(C)c3[nH]c(=O)c(Cc4ccc(F)cc4)cc32)[C@@H](CN2CCO[C@H](COc3ccc(OC[C@@H]4CN(C[C@H]5CN[C@H](C)CN5CC(=O)N5CC(C)(C)c6[nH]c(=O)c(Cc7ccc(F)cc7)cc65)CCO4)cc3)C2)CN1 [Example 70, 1,1′-(2,2′-((3R,3′R,6R,6′R)-(((2S,2'S)-((1,4-phenylenebis(oxy))bis(methylene))bis(morpholine-2,4-diyl))bis(methylene))bis(3-methylpiperazine-6,1-diyl))bis(acetyl))bis(6-(4-fluorobenzyl)-3,3-dimethyl-1,2,3,4-tetrahydro-5H-pyrrolo[3,2-b]pyridin-5-one)] | 0.49 to 12.6 nM | 15.8 to 31.6 nM | +++ (10,000>FS>1,000) | 1000 to 3160 nM | 7.94 to 15.8 nM | +++ (10,000>FS>1,000) | 1000 to 3160 nM | 15.8 to 31.6 nM | ++++ (FS>10,000) |  |  | 10000 to 51300 nM
7 | C[C@@H]1CN(CC(=O)N2CC(C)(C)c3[nH]c(=O)c(Cc4ccc(F)cc4)cc32)[C@@H](CN2CCO[C@H](C(=O)N(C)CCCCCCN(C)C(=O)[C@@H]3CN(C[C@H]4CN[C@H](C)CN4CC(=O)N4CC(C)(C)c5[nH]c(=O)c(Cc6ccc(F)cc6)cc54)CCO3)C2)CN1 [Example 124, (2S,2'S)-N,N′-(hexane-1,6-diyl)bis(4-(((2R,5R)-1-(2-(6-(4-fluorobenzyl)-3,3-dimethyl-5-oxo-2,3,4,5-tetrahydro-1H-pyrrolo[3,2-b]pyridin-1-yl)-2-oxoethyl)-5-methylpiperazin-2-yl)methyl)-N-methylmorpholine-2-carboxamide)] | 12.6 to 63.1 nM | 7.94 to 15.8 nM | +++ (10,000>FS>1,000) | 1000 to 3160 nM | 7.94 to 15.8 nM | +++ (10,000>FS>1,000) | 1000 to 3160 nM | 7.94 to 15.8 nM | ++++ (FS>10,000) |  |  | 10000 to 51300 nM
